According to patent US20240188568A1, “ENVIRONMENTALLY FRIENDLY COMPOSITIONS AND METHODS OF THEIR USE FOR PROMOTING THE GROWTH OF TURFGRASS OVER WEEDS” (Edaphix, LLC, priority 2021, published 2024):

Key:
chlorophyllitic plants = settings: as little as; cited from earlier work
turf weeds = assay: Turfgrass test plots, Bozeman, MT: weed cover; format: in vivo
Text: (§1) Initially, a series of small turfgrass test plots was studied to gather preliminary information that helped guide the establishment of this larger, long-term study involving multiple rates and formulations. The test plots of this experiment were established in a weedy turfgrass location within the Bridger Creek Subdivision Community Association, Phase 1, Section 31, Township 1 South, Range 6 East, P.M.M., City of Bozeman, Gallatin County, Montana. The experimental site was established in a location with approximately 20 inches of annual precipitation, with annual maximum precipitation amounts observed in May and June. Winter conditions with frozen ground prevail during approximately 5 months of the year (November-March). Soils have high organic matter content in the upper six inches and are underlain by floodplain gravels and a water table 3-15 feet below ground surface. The primary turf weeds at this location in their order of relative prevalence are clover, dandelion, creeping Charlie, oxeye daisy, black medic and Canadian thistle. […]
(§2) The plots were typically 50 square feet (FIG. 1). Vegetation cover measurements were made using a frame placed on the turf and an estimate was calculated for the proportion of perennial grasses and weeds in each frame (FIG. 2). […] Since installation of the first plots, they have been monitored 5 times over a period of 21 months for vegetation cover. […]

perennial grasses = assay: Turfgrass test plots, Bozeman, MT: healthy perennial grass cover and turf stress; format: in vivo; settings: healthy perennial grass cover averaged over each treatment category, 21 months (Table 3)
Text: as §1, with “surface.” for “surface. The primary turf weeds at this location in their order of relative prevalence are clover, dandelion, creeping Charlie, oxeye daisy, black medic and Canadian thistle.”
as §2
The boron-only plots caused turf stress and yellowing. Immediately following application in monitoring, healthy and unhealthy/stressed turf was measured based on tissue color. […]

French marigold = settings: Jong et al. (1996); cited from earlier work
seed geranium = settings: in combination with nitrogen, phosphorus, and potassium; Lee and others (1996); cited from earlier work
[1] = 2005 carcinogen assessment guidelines; cited from earlier work

## O=C(O)CNCP(=O)(O)O [glyphosate]
Chlorophyllitic plants
  application rate effective at causing photosynthetic disruption: 0.75 pounds active ingredient per acre

## O=C(O)COc1ccc(Cl)cc1Cl [2-4 D, 2,4-Dichlorophenoxyacetic acid]
Turf weeds; typical value over the first 2 years of monitoring (FIG. 3), control about 50%
  weed cover, typical: ~20%
Turf weeds; weed cover averaged over each treatment category, 21 months (Table 3)
  Average Percent Ground Cover For 21-Month Monitoring Period, Weeds: 13%
Perennial grasses
  Average Percent Ground Cover For 21-Month Monitoring Period, Turf Grass: 80%

## [B] [boron]
French marigold
  concentration inducing micro-nutrient toxicity: 500 ng/mL
Seed geranium
  concentration of nutrient solution inducing micronutrient toxicity symptoms: 500 ng/mL

## [Mo] [Mo, molybdenum]
Seed geranium
  concentration of nutrient solution inducing micronutrient toxicity symptoms: 250 ng/mL

## [Zn] [Zn, zinc]
Seed geranium
  concentration of nutrient solution inducing micronutrient toxicity symptoms: 500 ng/mL

## borate salts
[1]
  U.S. EPA carcinogenicity classification: not likely to be carcinogenic to humans

## OB(O)O [boric acid]
[1]
  U.S. EPA carcinogenicity classification: not likely to be carcinogenic to humans

## [Cu] [Cu, copper]
Seed geranium
  concentration of nutrient solution inducing micronutrient toxicity symptoms: 500 ng/mL
